The text below walks through data of patent US20240199618A1, “NOVEL N-ACYL-[3-SUBSTITUTED]-[8-SUBSTITUTED]-5,6-DIHYDRO-[1,2,4]TRIAZOLO[4,3-a]PYRAZINES AS SELECTIVE NK-3 RECEPTOR ANTAGONISTS, PHARMACEUTICAL COMPOSITION, METHODS FOR USE IN NK-3 RECEPTOR-MEDIATED DISORDERS” (Ogeda SA, priority 2013, published 2024).

For series [1], the target named is T1, human NK-3 receptor (Homo sapiens (Human), UniProt P29371). Description: Aequorin functional assay with human NK-3 receptor (antagonist testing vs NKA). To be noted: CHO cells, NKA at EC80 (3 nM); read-out: Functional assay: Aequorin assay with human NK-3 receptor hNK-3-AEQ (antagonist IC50). Format: cell-based. The procedure: Aequorin Assay with Human NK-3 Receptor
Changes in intracellular calcium levels are a recognized indicator of G protein-coupled receptor activity. The efficacy of compounds of the invention to inhibit NKA-mediated NK-3 receptor activation was assessed by an in vitro Aequorin functional assay. Chinese Hamster Ovary recombinant cells expressing the human NK-3 receptor and a construct that encodes the photoprotein apoaequorin were used for this assay. In the presence of the cofactor coelenterazine, apoaequorin emits a measurable luminescence that is proportional to the amount of intracellular (cytoplasmic) free calcium.
The antagonist activity of compounds of the invention is measured following pre-incubation (3 minutes) of the compound (at various concentrations) with the cells, followed by addition of the reference agonist (NKA) at a final concentration equivalent to the EC80 (3 nM) and recording of emitted light (FDSS 6000 Hamamatsu) over the subsequent 90-second period. The intensity of the emitted light is integrated using the reader software. Compound antagonist activity is measured based on the concentration-dependent inhibition of the luminescence response to the addition of Neurokinin A.

Another series concerns plasma protein. The series is described as follows: Determination of plasma protein binding (equilibrium dialysis, RED). To be noted: 4 hours at 37° C. Format: in vitro ADME. The text has this: Determination of plasma protein binding The pharmacokinetic and pharmacodynamic properties of chemicals/drugs are largely a function of the reversible binding of chemicals to plasma or serum proteins. […] Consequently, the extent of the plasma protein binding (PPB) of a compound influences its action as well as its distribution and elimination.
The determination of plasma protein binding (PPB) of a compound is enabled by equilibrium dialysis, an accepted and standard method for reliable estimation of the non-bound drug fraction in plasma. RED (Rapid Equilibrium Dialysis) device insert is made of two side-by-side chambers separated by an O-ring-sealed vertical cylinder of dialysis membrane (MWCO ˜8,000). […] After 4 hours incubation at 37° C. under shaking, an aliquot is removed from each chamber and analyzed by a LC-MS/MS procedure enables the determination of both free and bound drug.
The “free fraction” may be calculated as 100%−% rPPB (i.e. the complementary percentage of that disclosed in Table 4, corresponding to the drug concentration that is unbound and therefore available to engage biological target and elicit pharmacological activity).
On the technique in general: In equilibrium dialysis free small molecules cross a membrane that holds back macromolecules.

The next series concerns the target human NK-2 receptor (Homo sapiens (Human), UniProt P21452). Description: Selectivity assay: [125I]-Neurokinin A binding, human NK-2 receptor. As to conditions: 0.1 nM [125I]-Neurokinin A, CHO membranes; read-out: hNK-2 (Ki). The procedure: The affinity of compounds of the invention for the NK-2 receptor was evaluated in CHO recombinant cells which express the human NK-2 receptor. Membrane suspensions were prepared from these cells. […] Binding assays were performed in a 25 mM HEPES/1 mM CaCl2)/5 mM MgCl2/0.5% BSA/10 μg/ml saponin, at pH 7.4. […] The radioactivity retained on the filters was measured by using the TopCount-NXT reader (Packard).

A further series has as its target human NK-1 receptor (Homo sapiens (Human), UniProt P25103). The series is described as follows: Selectivity assay: [3H] substance P binding, human NK-1 receptor. As to conditions: 2 nM [3H] substance P, CHO membranes; read-out: hNK-1 (Ki). The method, then: Selectivity of the compounds of the invention was determined over the other human NK receptors, namely NK-1 and NK-2 receptors.
The affinity of compounds of the invention for the NK-1 receptor was evaluated in CHO recombinant cells which express the human NK-1 receptor. Membrane suspensions were prepared from these cells. The following radioligand: [^3H] substance P (PerkinElmer Cat #NET111520) was used in this assay. Binding assays were performed in a 50 mM Tris/5 mM MnCl2/150 mM NaCl/0.1% BSA at pH 7.4. Binding assays consisted of 25 μl of membrane suspension (approximately 5 μg of protein/well in a 96 well plate), 50 μl of compound or reference ligand (Substance P) at increasing concentrations (diluted in assay buffer) and 2 nM [^3H] substance P. The plate was incubated 60 min at 25° C. in a water bath and then filtered over GF/C filters (Perkin Elmer, 6005174, presoaked in 0.5% PEI for 2 h at room temperature) with a Filtration unit (Perkin Elmer). The radioactivity retained on the filters was measured by using the TopCount-NXT reader (Packard).

The target in series [2] is T1, human NK-3 receptor. Description: 3H-SB222200 binding competition assay with human NK-3 receptor. The method, then: The affinity of compounds of the invention for the human NK-3 receptor was determined by measuring the ability of compounds of the invention to competitively and reversibly displace a well-characterized NK-3 radioligand in a concentration-dependent manner.
^3H-SB222200 Binding Competition Assay with Human NK-3 Receptor
Membranes were prepared from Chinese hamster ovary recombinant cells stably expressing the human NK-3 receptor. The membranes were incubated with 5 nM ^3H-SB222200 (ARC) in a HEPES 25 mM/NaCl 0.1M/CaCl2 1 mM/MgCl2 5 mM/BSA 0.5%/Saponin 10 μg/ml buffer at pH 7.4 and various concentrations of compounds of the invention. The amount of ^3H-SB222200 bound to the receptor was determined after filtration by the quantification of membrane associated radioactivity using the TopCount-NXT reader (Packard).

Setting [3] is: Table 2, 5 nM 3H-SB222200, CHO membranes, read-out: Competitive binding assay with human NK-3 receptor hNK-3 (Ki).
Where [4] appears, read: Table 3 (selectivity table), read-out: hNK-3 (Ki).

The structures appear in SMILES notation. Read-outs that look alike come from different tables or passages of the source. Bounds are passed on as bounds.

Chain of human NK-1 receptor (P25103 whole entry): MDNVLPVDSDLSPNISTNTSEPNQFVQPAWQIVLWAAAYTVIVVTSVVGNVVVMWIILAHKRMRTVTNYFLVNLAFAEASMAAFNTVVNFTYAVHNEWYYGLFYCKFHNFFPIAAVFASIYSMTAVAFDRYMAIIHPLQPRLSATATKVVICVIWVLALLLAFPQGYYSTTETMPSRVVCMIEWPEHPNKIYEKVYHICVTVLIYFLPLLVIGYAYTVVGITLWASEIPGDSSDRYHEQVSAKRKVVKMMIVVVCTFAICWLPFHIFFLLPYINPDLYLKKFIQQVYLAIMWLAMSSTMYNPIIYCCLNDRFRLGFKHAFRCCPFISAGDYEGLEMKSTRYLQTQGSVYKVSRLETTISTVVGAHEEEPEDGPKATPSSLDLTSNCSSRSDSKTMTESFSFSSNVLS
T1 sequence (P29371 whole entry): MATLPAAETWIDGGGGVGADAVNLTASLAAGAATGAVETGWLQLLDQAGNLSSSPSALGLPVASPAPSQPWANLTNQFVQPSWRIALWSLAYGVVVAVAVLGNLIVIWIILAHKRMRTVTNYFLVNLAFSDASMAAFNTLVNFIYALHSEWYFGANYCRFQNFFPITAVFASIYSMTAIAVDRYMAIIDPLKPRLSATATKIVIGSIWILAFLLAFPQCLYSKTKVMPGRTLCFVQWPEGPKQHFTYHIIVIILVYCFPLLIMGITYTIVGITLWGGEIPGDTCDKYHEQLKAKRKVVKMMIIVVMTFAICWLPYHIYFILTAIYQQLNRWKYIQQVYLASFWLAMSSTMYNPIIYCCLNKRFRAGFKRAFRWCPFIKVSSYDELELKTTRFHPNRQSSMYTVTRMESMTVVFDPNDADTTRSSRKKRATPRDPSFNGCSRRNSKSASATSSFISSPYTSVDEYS
Chain of human NK-2 receptor (P21452 whole entry): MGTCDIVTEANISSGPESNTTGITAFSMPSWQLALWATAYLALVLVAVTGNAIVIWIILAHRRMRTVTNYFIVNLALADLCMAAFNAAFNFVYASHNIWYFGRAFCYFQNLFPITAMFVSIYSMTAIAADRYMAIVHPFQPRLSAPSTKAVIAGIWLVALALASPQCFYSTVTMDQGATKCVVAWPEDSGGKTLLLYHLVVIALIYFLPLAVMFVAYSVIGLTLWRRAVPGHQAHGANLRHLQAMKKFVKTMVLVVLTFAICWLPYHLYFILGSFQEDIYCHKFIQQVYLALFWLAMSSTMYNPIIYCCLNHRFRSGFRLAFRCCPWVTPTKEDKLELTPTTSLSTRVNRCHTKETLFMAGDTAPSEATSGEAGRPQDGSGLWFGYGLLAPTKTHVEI

`CC(F)c1noc(-c2nnc3n2CCN(C(=O)c2ccc(F)cc2)[C@@H]3C)n1` (single isomer, unassigned) [Compound 45-2]: the IC50 (in general, the concentration needed to halve the response being measured) on human NK-3 receptor [1] stood at 148 nM. In addition, in the series with plasma protein, the “Exposure (% rPPB), bound drug fraction to plasma protein” value (“Exposure (% rPPB), bound drug fraction” for short) stood at 33%. In addition, the Ki (in general, a dissociation constant, usually derived from enzyme kinetics or from competition with a known ligand) on human NK-2 receptor is more than 30000 nM; on human NK-1 receptor it was more than 30000 nM; on human NK-3 receptor [2] (setting [3]) it was 83 nM; at human NK-3 receptor [2] (setting [4]), 83 nM.

Turning to `Cc1nsc(-c2nnc3n2CCN(C(=O)c2cc(F)c(F)c(F)c2)[C@@H]3C)n1` [Compound 7, (R)-(8-methyl-3-(3-methyl-1,2,4-thiadiazol-5-yl)-5,6-dihydro-[1,2,4]triazolo[4,3-a]pyrazin-7(8H)-yl)(3,4,5-trifluorophenyl)methanone], the IC50 at human NK-3 receptor [1] was 30 nM. Besides, the “Exposure (% rPPB), bound drug fraction” value in the series on plasma protein is listed as 26%. The Ki was 36000 nM at human NK-2 receptor, more than 30000 nM on human NK-1 receptor, 26 nM at human NK-3 receptor [2] (setting [3]) and 26 nM at human NK-3 receptor [2] (setting [4]).

As for `Cc1nsc(-c2nnc3n2CCN(C(=O)c2ccc(C(F)(F)F)cc2)[C@@H]3C)n1` [Compound 21, (R)-(8-methyl-3-(3-methyl-1,2,4-thiadiazol-5-yl)-5,6-dihydro-[1,2,4]triazolo[4,3-a]pyrazin-7(8H)-yl)(4-(trifluoromethyl)phenyl)methanone], the IC50 on human NK-3 receptor [1] turned out to be 150 nM. Besides, the “Exposure (% rPPB), bound drug fraction” value in the series on plasma protein stood at 38%. The Ki on human NK-2 receptor was more than 30000 nM; on human NK-1 receptor, more than 30000 nM; on human NK-3 receptor [2] (setting [3]) it was 63 nM; at human NK-3 receptor [2] (setting [4]) it was 63 nM.

In the case of `Cc1nsc(-c2nnc3n2CCN(C(=O)c2ccc(F)c(Cl)c2)[C@@H]3C)n1` [Compound 6, (R)-(3-chloro-4-fluorophenyl)(8-methyl-3-(3-methyl-1,2,4-thiadiazol-5-yl)-5,6-dihydro-[1,2,4]triazolo[4,3-a]pyrazin-7(8H)-yl)methanone], the half-inhibitory concentration (IC50) at human NK-3 receptor [1] is 30 nM. Besides, the “Exposure (% rPPB), bound drug fraction” value in the series on plasma protein worked out at 53%. For the same molecule, the Ki on human NK-2 receptor was 25000 nM; at human NK-1 receptor it was 22100 nM; on human NK-3 receptor [2] (setting [3]), 24 nM; at human NK-3 receptor [2] (setting [4]), 24 nM.

With `Cc1nsc(-c2nnc3n2CCN(C(=O)c2cc(F)c(F)c(F)c2F)C3C)n1` (racemic) [Compound 31, (8-methyl-3-(3-methyl-1,2,4-thiadiazol-5-yl)-5,6-dihydro-[1,2,4]triazolo[4,3-a]pyrazin-7(8H)-yl)(2,3,4,5-tetrafluorophenyl)methanone], the IC50 at human NK-3 receptor [1] amounted to 64 nM. In the series on plasma protein, the “Exposure (% rPPB), bound drug fraction” value is listed as 31%. Also, the Ki on human NK-2 receptor was more than 30000 nM; on human NK-1 receptor it was more than 30000 nM; on human NK-3 receptor [2] (setting [3]), 70 nM; on human NK-3 receptor [2] (setting [4]), 70 nM.

For `CC(F)c1noc(-c2nnc3n2CCN(C(=O)c2ccc(F)cc2)[C@@H]3C)n1` (single isomer, unassigned) [Compound 45-1], the IC50 at human NK-3 receptor [1] stood at 285 nM. The “Exposure (% rPPB), bound drug fraction” value in the series with plasma protein was determined as 27%. In addition, the Ki was more than 30000 nM on human NK-2 receptor, more than 30000 nM on human NK-1 receptor, 100 nM on human NK-3 receptor [2] (setting [3]) and 100 nM at human NK-3 receptor [2] (setting [4]).

With `Cc1nsc(-c2nnc3n2CCN(C(=O)c2ccc(F)c(F)c2F)C3C)n1` (racemic) [Compound 33, (8-methyl-3-(3-methyl-1,2,4-thiadiazol-5-yl)-5,6-dihydro-[1,2,4]triazolo[4,3-a]pyrazin-7(8H)-yl)(2,3,4-trifluorophenyl)methanone], the IC50 at human NK-3 receptor [1] was 120 nM. For the same molecule, the “Exposure (% rPPB), bound drug fraction” value in the series with plasma protein is given as 29%. The Ki on human NK-2 receptor is more than 30000 nM; on human NK-1 receptor, more than 30000 nM; at human NK-3 receptor [2] (setting [3]) it was 89 nM; on human NK-3 receptor [2] (setting [4]), 89 nM.

Regarding `Cc1nsc(-c2nnc3n2CCN(C(=O)c2ccc(F)cc2F)[C@@H]3C)n1` [Compound 18, (R)-(2,4-difluorophenyl)(8-methyl-3-(3-methyl-1,2,4-thiadiazol-5-yl)-5,6-dihydro-[1,2,4]triazolo[4,3-a]pyrazin-7(8H)-yl)methanone], the IC50 on human NK-3 receptor [1] amounted to 87 nM. The “Exposure (% rPPB), bound drug fraction” value in the series with plasma protein was found to be 23%. Moreover, the Ki at human NK-2 receptor is more than 30000 nM; on human NK-1 receptor, more than 30000 nM; on human NK-3 receptor [2] (setting [3]), 54 nM; at human NK-3 receptor [2] (setting [4]), 54 nM.

On to `CC(F)c1noc(-c2nnc3n2CCN(C(=O)c2ccc(F)cc2)[C@@H]3C)n1` (stereo partly drawn) [Compound 45, ((8R)-3-(3-(1-fluoroethyl)-1,2,4-oxadiazol-5-yl)-8-methyl-5,6-dihydro-[1,2,4]triazolo[4,3-a]pyrazin-7(8H)-yl)(4-fluorophenyl)methanone], for which the half-maximal inhibitory concentration (IC50) at human NK-3 receptor [1] came to 244 nM. The “Exposure (% rPPB), bound drug fraction” value in the series with plasma protein is 31%. For the same molecule, the Ki on human NK-2 receptor is more than 30000 nM; at human NK-1 receptor, more than 30000 nM; at human NK-3 receptor [2] (setting [3]), 101 nM; at human NK-3 receptor [2] (setting [4]), 101 nM.

For `C[C@@H]1c2nnc(-c3nc(CC(F)(F)F)no3)n2CCN1C(=O)c1ccc(F)cc1` [Compound 44, (R)-(4-fluorophenyl)(8-methyl-3-(3-(2,2,2-trifluoroethyl)-1,2,4-oxadiazol-5-yl)-5,6-dihydro-[1,2,4]triazolo[4,3-a]pyrazin-7(8H)-yl)methanone], on human NK-3 receptor [1], the half-maximal inhibitory concentration (IC50) is 204 nM. Further, in the series with plasma protein, the “Exposure (% rPPB), bound drug fraction” value came to 31%. Also, the Ki at human NK-2 receptor was more than 30000 nM; at human NK-1 receptor, more than 30000 nM; at human NK-3 receptor [2] (setting [3]), 45 nM; at human NK-3 receptor [2] (setting [4]), 45 nM.

Regarding `C[C@@H]1c2nnc(-c3nc(C(F)F)ns3)n2CCN1C(=O)c1ccc(F)cc1` [Compound 42, (R)-(3-(3-(difluoromethyl)-1,2,4-thiadiazol-5-yl)-8-methyl-5,6-dihydro-[1,2,4]triazolo[4,3-a]pyrazin-7(8H)-yl)(4-fluorophenyl)methanone], the IC50 at human NK-3 receptor [1] amounted to 39 nM. Moreover, the “Exposure (% rPPB), bound drug fraction” value in the series on plasma protein amounted to 16%. For the same molecule, the inhibition constant Ki was more than 30000 nM at human NK-2 receptor, more than 30000 nM on human NK-1 receptor, 48 nM at human NK-3 receptor [2] (setting [3]) and 48 nM at human NK-3 receptor [2] (setting [4]).
